Laboratory results from US5536497A, “Fimbrial polypeptides useful in the prevention of periodontitis” (priority 1992, dated 1996).
Like-named read-outs stand apart in the source and are kept apart here. Square brackets hold non-standard residues; d marks the D form. Peptide text beside a SMILES is read from it. * marks the point of attachment. Sta = CC(C)C[C@H](N)[C@@H](O)CC(=O)O; Isovaleryl = CC(C)CC(=O)*

Test system: P. gingivalis 2561 binding to sHAP beads
Assay: microbe, parasite or virus in culture
Assay type: cell-based, Porphyromonas gingivalis
[1] = Table 2, amount 0.1 mg, minus = enhancement of binding

Row | Molecule | Inhibition (%) [1] [%] | other results
1 | c1cnc2c(c1)ccc1cccnc12 [1,10-Phenanthroline] | – | inhibition at 1000 µM (Porphyromonas gingivalis): -8%
2 | O=C[C@H](O)[C@@H](O)[C@@H](O)[C@H](O)C(=O)O [D-Galacturonic acid] | 21 | –
3 | O=C[C@H](O)[C@@H](O)[C@H](O)[C@H](O)C(=O)O [D-Glucuronic acid] | 33 | –
4 | O=C(O)CN(CCN(CC(=O)O)CC(=O)O)CC(=O)O [EDTA] | – | Inhibition (%): 24
5 | C[C@H](O)[C@@H](O)[C@@H](O)[C@H](O)C=O [Fucose] | 1 | –
6 | N[C@H]1C(O)O[C@H](CO)[C@H](O)[C@@H]1O (some centres unmarked) [Galactosamine] | 8 | –
7 | O=C[C@H](O)[C@@H](O)[C@@H](O)[C@H](O)CO [Galactose] | -7 | –
8 | N[C@H]1C(O)O[C@H](CO)[C@@H](O)[C@@H]1O (some centres unmarked) [Glucosamine] | 0 | –
9 | O=C[C@H](O)[C@@H](O)[C@H](O)[C@H](O)CO [Glucose] | -10 | –
10 | N=C(N)NCCC[C@H](N)C(=O)O [L-Arginine] | 0 | –
11 | NCCCC[C@H](N)C(=O)O [L-Lysine] | 5 | –
12 | OC[C@H]1O[C@@H](O[C@H]2[C@H](O)[C@@H](O)C(O)O[C@@H]2CO)[C@H](O)[C@@H](O)[C@H]1O (some centres unmarked) [Lactose] | -1 | –
13 | CC(=O)N[C@@H](CC(C)C)C(=O)N[C@@H](CC(C)C)C(=O)N[C@H](C=O)CCCNC(=N)N [Leupeptin] | – | inhibition at 2 µM (Porphyromonas gingivalis): 19%
14 | OC[C@H]1O[C@H](O[C@H]2[C@H](O)[C@@H](O)[C@H](O)O[C@@H]2CO)[C@H](O)[C@@H](O)[C@@H]1O [Maltose] | -8 | –
15 | O=C[C@@H](O)[C@@H](O)[C@H](O)[C@H](O)CO [Mannose] | -15 | –
16 | CC(=O)N[C@H]1C(O)O[C@H](CO)[C@H](O)[C@@H]1O (some centres unmarked) [N-Acetylgalactosamine] | -5 | –
17 | CC(=O)N[C@H]1C(O)O[C@H](CO)[C@@H](O)[C@@H]1O (some centres unmarked) [N-Acetylglucosamine] | -15 | –
18 | CC(C)CC(=O)N[C@H](C(=O)N[C@H](C(=O)N[C@@H](CC(C)C)[C@@H](O)CC(=O)N[C@@H](C)C(=O)N[C@@H](CC(C)C)[C@@H](O)CC(=O)O)C(C)C)C(C)C [Pepstatin] (Isovaleryl-VV[Sta]A[Sta]-OH) | – | inhibition at 1 µM (Porphyromonas gingivalis): -10%
19 | O=S(=O)(F)Cc1ccccc1 [Phenylmethylsulfonyl fluoride] | – | Inhibition (%) (Table 2, conc. 2 mM): 13%
20 | CC(=O)N[C@H]1[C@H]([C@H](O)[C@H](O)CO)OC(O)(C(=O)O)C[C@@H]1O (some centres unmarked) [Sialic acid (N-acetyl neuraminic acid), N-acetyl neuraminic acid] | 28 | –
21 | Defatted BSA: defatted BSA, agent tested in Table 2 | – | Inhibition (%) (Table 2, amount l mg): 43%
22 | N-Acetyl neuramin-lactose | 2 | –
23 | Poly-L-lysine | – | Inhibition (%) (Table 2, amount 0.25 mg): 41%
24 | poly-2,8-N-acetyl neuraminic acid | 13 | –
25 | Trypsin, bovine pancreas type XIII-TPCK: trypsin from bovine pancreas, type XIII, TPCK treated (protein, UniProt P00760 24-246, looked up, TPCK treated) Serine protease 1: IVGGYTCGANTVPYQVSLNSGYHFCGGSLINSQWVVSAAHCYKSGIQVRLGEDNINVVEGNEQFISASKSIVHPSYNSNTLNNDIMLIKLKSAASLNSRVASISLPTSCASAGTQCLISGWGNTKSSGTSYPDVLKCLKAPILSDSSCKSAYPGQITSNMFCAGYLEGGKDSCQGDSGGPVVCSGKLQGIVSWGSGCAQKNKPGVYTKVCNYVSWIKQTIASN | – | Inhibition (%) (Table 2, amount 100 U): 53%; Reduction of P. gingivalis binding after pretreatment of sHAP beads (sHAP beads pretreated with enzyme prior to being mixed with P. gingivalis cells): approximately 50%
